Results as given in ChEMBL document CHEMBL2074250, “Digoxin up-regulates MDR1 in human colon carcinoma Caco-2 cells” (Biochem Biophys Res Commun, 2002).

Biological target: ATP-dependent translocase ABCB1 (Homo sapiens, UniProt P08183)
Assay: TP_TRANSPORTER: RT-PCR in Caco-2 cells
Assay type: functional, cell-based

ATP-dependent translocase ABCB1, sequence (P08183 whole entry): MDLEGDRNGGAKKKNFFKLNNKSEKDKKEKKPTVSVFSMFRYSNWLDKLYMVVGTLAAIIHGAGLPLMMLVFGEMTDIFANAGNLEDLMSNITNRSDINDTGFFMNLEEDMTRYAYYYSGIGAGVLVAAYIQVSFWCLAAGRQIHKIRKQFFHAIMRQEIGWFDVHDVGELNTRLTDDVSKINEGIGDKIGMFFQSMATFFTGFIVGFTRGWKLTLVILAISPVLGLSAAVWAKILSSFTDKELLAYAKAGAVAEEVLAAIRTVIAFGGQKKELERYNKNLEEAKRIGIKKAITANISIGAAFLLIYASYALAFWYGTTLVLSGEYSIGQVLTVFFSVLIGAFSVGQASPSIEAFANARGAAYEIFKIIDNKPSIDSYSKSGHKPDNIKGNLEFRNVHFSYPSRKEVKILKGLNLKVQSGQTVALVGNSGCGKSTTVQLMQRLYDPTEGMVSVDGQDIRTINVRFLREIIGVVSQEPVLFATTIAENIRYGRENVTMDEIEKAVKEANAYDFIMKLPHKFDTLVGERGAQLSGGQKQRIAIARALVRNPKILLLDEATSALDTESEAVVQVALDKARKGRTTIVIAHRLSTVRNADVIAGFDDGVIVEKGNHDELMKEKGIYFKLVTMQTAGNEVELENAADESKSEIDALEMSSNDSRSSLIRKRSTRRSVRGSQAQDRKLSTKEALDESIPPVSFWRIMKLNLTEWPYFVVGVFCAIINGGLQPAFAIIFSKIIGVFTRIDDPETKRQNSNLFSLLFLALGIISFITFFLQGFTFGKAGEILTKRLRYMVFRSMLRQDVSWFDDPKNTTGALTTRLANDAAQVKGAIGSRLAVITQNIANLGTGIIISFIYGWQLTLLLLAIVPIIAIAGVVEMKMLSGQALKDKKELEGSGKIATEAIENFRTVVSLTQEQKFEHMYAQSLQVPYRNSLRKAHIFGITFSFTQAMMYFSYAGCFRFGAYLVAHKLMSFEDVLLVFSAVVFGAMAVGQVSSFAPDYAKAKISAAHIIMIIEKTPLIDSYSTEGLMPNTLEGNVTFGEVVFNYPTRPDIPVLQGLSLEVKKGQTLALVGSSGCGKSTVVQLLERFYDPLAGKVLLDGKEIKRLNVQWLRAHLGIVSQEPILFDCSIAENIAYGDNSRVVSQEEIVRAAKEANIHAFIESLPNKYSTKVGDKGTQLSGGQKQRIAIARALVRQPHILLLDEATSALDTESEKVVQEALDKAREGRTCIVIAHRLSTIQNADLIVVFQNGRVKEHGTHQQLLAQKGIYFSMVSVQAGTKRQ

Activity: inducer [+]
Compound: C[C@H]1O[C@@H](O[C@H]2[C@@H](O)C[C@H](O[C@H]3[C@@H](O)C[C@H](O[C@H]4CC[C@@]5(C)[C@H](CC[C@@H]6[C@@H]5C[C@@H](O)[C@]5(C)[C@@H](C7=CC(=O)OC7)CC[C@]65O)C4)O[C@@H]3C)O[C@@H]2C)C[C@H](O)[C@@H]1O [DIGOXIN]
